| Compound | melting point |
| --- | --- |
| COc1cc(C(=O)CCCc2ccccc2)ccc1O | 91 to 92 °C |
| O=C1Cc2cc3c(cc2CCN1)OCO3 | 236 to 237 °C |
| CCCNCC(O)COc1ccccc1CCCc1cccc2[nH]ccc12 (stereo not given) | 99 to 100 °C |
| O=[N+]([O-])c1cc(C(F)(F)F)cc2c(Cl)ccnc12 | 100 to 107 °C |
| Cn1c(=O)c2c(C(=O)O)nc(O)n2c2ccccc21 | > 300 °C |
| C=CCc1cc(Cc2cnc(N)nc2N)c2cccnc2c1OCCOC | 196 to 200 °C |
| CC(=O)OC(OC(C)=O)c1cc(Br)c(C(OC(C)=O)OC(C)=O)cc1Br | 200 to 210 °C |
| S=C=Nc1ccc(-c2nc(-c3cccnc3)no2)cc1 | 121 to 123 °C |
| Cc1cc(C)c(COc2cccnc2NC(=N)Nc2ccc(Cl)cc2)c(C)c1 | 169 to 171 °C |
| O=C(OC1c2ccccc2C(=O)N1c1ccc2ccc(Cl)nc2n1)N1CCN(C=S)CC1 (stereo not given) | 295 °C |
| Cc1nc2c(N)nc3cc(OCCC4CCN(C(=O)C5CCCC5)CC4)ccc3c2n1CC(C)C | 236 to 238 °C |
| CCCCCCCCCCCCCC(=O)Nc1ccc(Cl)c(NC2=NN(c3c(Cl)cc(Cl)cc3Cl)C(=O)C2SCc2ccccc2)c1 (stereo not given) | 182 to 185 °C |
| COCC(=O)c1c(Cl)ccc(F)c1Cl | 36.7 to 39.4 °C |
| COC1=C(Cc2ccc3ccccc3c2)C(=O)CC1 | 70 to 71 °C |
| CCOC(=O)CNC(=O)c1ccc(CCC2CNc3nc(N)nc(O)c3C2)s1 (stereo not given) | 152 to 160 °C |
| CC(C)(C)OC(=O)NCC(=O)Nc1c(C(=O)CC(=O)Nc2nccs2)cccc1C(F)(F)F | 166 °C |
| COc1cc2oc(=O)c(CCN3CCN(c4ccccc4)CC3)c(C)c2c(OC)c1OC | 136 to 137 °C |
| COCCNC(=O)c1cccc(-c2cccc3cc(Cc4ccc(F)cc4F)sc23)c1 | 94 to 95 °C |
| Cc1[nH]c(=O)n(C2CCCCC2)c1-c1ccc(Oc2ccccc2)cc1 | 198 °C |
| CCCc1c(C(=O)C(C)C)c2ccc(C(=O)OC)cc2n1Cc1ccccc1OC | 103 to 105 °C |
| CC(C)Cc1nn(C)c(=O)c2cc(Cc3ccccc3)sc12 | 97 to 98 °C |
| N#CC1CCSc2[nH]c3ccccc3c21 (stereo not given) | 125 to 126 °C |
| C=C1C(=O)Nc2ccc(C(F)(F)F)cc2CC1c1ccc(OC)cc1 (stereo not given) | 181 to 183 °C |
| COc1ccc(C(=C/C=C/C(=O)O)c2ccc(OC)c(OC)c2)cc1OC | 174 to 176 °C |
| O=C(O)C1=Cc2cc(Cl)cc(I)c2OC1C(F)(F)F (stereo not given) | 220 to 223 °C |

| Compound | melting point |
| --- | --- |
| C=CCOCc1ccc([N+](=O)[O-])cc1Nc1nccc(-c2cccnc2)n1 | 213 to 215 °C |
| Fc1cccc2c(NCCc3ccc(Oc4cccc(C(F)(F)F)n4)cc3)ccnc12 | 157 °C |
| O=C(Nc1ccc(-n2nc(C(F)(F)F)cc2C(F)(F)F)cc1)c1ccc[nH]1 | > 240 °C |
| COc1ccc(Cn2c(=O)n(C3OC(CO)C(O)C3O)c3nc(N)[nH]c(=O)c32)cc1 (stereo not given) | > 230 °C |
| CCC(=O)OC1=C(c2nnc(-c3ccccc3)o2)N(C)S(=O)(=O)c2ccccc21 | 143 to 146 °C |
| CSc1nc(Cl)c(Cc2ccccc2)c(N2CCCC2)n1 | 97 to 99 °C |
| CNC(=C[N+](=O)[O-])NCCCCc1ccc(CN(C)C)s1 | 104 to 106 °C |
| COC(=O)c1cc2cc(CBr)ccc2s1 | 108 to 110 °C |
| c1ccc2c(c1)nc(-c1ccc3c(c1)OCO3)n2Cc1ccc2c(c1)OCO2 | 173 to 174 °C |
| COc1ccc(Cl)cc1-c1c(N)c(=O)[nH]c2cc([N+](=O)[O-])ccc12 | 293 to 295 °C |
| C#Cc1cccc(NC(=O)CCCC(=O)O)c1 | 150 to 154 °C |
| Cc1ccc(S(=O)(=O)OC[C@H]2COc3ccc(Cl)cc3O2)cc1 | 90 to 91 °C |
| OCC1CC(F)C(n2cnc3c(Cl)ncnc32)O1 (stereo not given) | 157 to 158 °C |
| CONS(=O)(=O)c1ccc(C)cc1 | 116 to 117 °C |
| CN[C@@H]1COc2cc(Cl)cc(-c3ccc(Cl)cc3C)c2O1 | 110 °C |
| CC(C(=O)CC(C)(C)Cc1ccc(Cl)cc1)N1C(=O)c2ccccc2C1=O (stereo not given) | 96 to 98 °C |
| Cc1ccc(N2CCC3CCc4cnccc4C3=N2)cc1 (stereo not given) | 158 to 159 °C |
| CN(CC1CCCCN1CC(=O)N1c2ccccc2NC(=O)c2ccccc21)C1CCCCC1 (stereo not given) | 146 to 148 °C |
| Cc1nc(C(F)(F)F)ccc1C(=O)C1=C(O)C2CCC(C2)C1=O (stereo not given) | 75 to 77 °C |
| CCN(CC)c1c(OC)cccc1C(=O)O | 68 to 71 °C |
| O=[N+]([O-])c1ccc2oc(Cc3ccccc3)cc2c1 | 100 °C |
| COC(=O)C1=C(C)NC(c2csc(C)n2)=NC1c1ccc(F)cc1Cl (stereo not given) | 128 to 130 °C |
| CC(C)c1nc(C(C)C)c(CN2CCC(N3CCCCC3)CC2)c(-c2ccc(F)cc2)c1CO | 143 to 145 °C |
| O=C(c1cccnc1)N1CC2CCC(C1)O2 | 48 to 49.5 °C |
| Cn1c(=Nc2ccc(Cl)cc2)sc2ncccc2c1=O | 142 to 143 °C |
